According to patent publication US7495027B2, “3-aryl-4-hydroxyfuranone compounds and the human and animal health use thereof” (Wyeth, priority 2003, dated 2009):
Values after ≈ are worked out from the molar mass of the structure shown. Read-outs that look alike come from different tables or passages of the source.

How the values were obtained:
[1] = target: E. coli Enopyruvyl-UPD-N-acetylglucosamine reductase, Mur B (Escherichia coli, UniProt P08373); experiment: biochemical; settings: (E) E. coli enzyme; for IC50: read-out: MurB IC50 (converted)
Sequence of E. coli Enopyruvyl-UPD-N-acetylglucosamine reductase, Mur B (P08373 whole entry): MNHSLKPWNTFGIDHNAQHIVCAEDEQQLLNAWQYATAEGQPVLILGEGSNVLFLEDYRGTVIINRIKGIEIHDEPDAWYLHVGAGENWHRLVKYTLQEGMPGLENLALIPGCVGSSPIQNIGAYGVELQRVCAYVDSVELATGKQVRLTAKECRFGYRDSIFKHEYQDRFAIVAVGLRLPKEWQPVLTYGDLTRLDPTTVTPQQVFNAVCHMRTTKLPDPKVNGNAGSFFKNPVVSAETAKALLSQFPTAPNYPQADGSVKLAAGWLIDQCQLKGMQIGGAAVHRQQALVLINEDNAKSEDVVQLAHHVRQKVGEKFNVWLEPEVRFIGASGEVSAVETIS

[2] = target: T1, S. aureus Enopyruvyl-UPD-N-acetylglucosamine reductase, Mur B (Staphylococcus aureus, UniProt P61431); experiment: biochemical
T1 sequence (P61431 1-307): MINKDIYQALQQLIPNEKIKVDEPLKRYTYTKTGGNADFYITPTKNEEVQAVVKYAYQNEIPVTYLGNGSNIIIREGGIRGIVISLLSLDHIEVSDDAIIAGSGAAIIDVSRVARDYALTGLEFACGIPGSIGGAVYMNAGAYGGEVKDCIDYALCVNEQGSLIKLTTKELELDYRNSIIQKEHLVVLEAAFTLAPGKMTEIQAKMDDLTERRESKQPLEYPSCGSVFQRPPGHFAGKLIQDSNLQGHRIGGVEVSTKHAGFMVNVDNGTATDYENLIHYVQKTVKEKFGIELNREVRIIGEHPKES

[3] = target: E. coli Uridine-diphosphate-N-acetvimuramoyl: L-alanine lipase, MurC (Escherichia coli, UniProt P17952); experiment: Inhibitory activity against MurC (E. coli); type: biochemical
Sequence of E. coli Uridine-diphosphate-N-acetvimuramoyl: L-alanine lipase, MurC (P17952 whole entry): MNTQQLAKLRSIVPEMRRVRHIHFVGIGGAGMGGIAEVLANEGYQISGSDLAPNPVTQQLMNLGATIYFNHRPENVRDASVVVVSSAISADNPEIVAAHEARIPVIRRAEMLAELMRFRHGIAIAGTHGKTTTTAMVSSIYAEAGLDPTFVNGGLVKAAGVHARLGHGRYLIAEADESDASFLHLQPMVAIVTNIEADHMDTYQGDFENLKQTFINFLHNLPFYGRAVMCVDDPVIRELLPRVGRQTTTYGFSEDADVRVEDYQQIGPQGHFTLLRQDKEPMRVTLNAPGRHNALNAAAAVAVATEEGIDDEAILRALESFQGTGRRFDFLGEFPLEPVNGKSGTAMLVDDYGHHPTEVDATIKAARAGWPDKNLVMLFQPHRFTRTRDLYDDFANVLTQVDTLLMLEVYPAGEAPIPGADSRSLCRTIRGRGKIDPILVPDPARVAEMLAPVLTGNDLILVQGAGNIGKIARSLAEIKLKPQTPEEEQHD

enterococci = experiment: Minimum inhibitory concentration, microdilution broth method, enterococci; type: cell-based; settings: Mueller-Hinton broth, 18-22 hours at 35° C.; for MIC: Enterococcus faecalis
In short: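 Strep: Mueller-Hinton + 5% horse blood (LHB). Enterococci, staph: Mueller-Hinton broth alone. Microdilution format per NCCLS M7-A5 2000; isolates include resistant clinical strains.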

[4] = (S) S. aureus enzyme, read-out: MurB IC50 (converted)
[5] = (E) E. coli enzyme, read-out: MurC IC50 (converted)
[6] = E. faecalis GC 2242, read-out: MIC E. faecalis GC 2242
[7] = E. faecalis GC 4555, read-out: MIC E. faecalis GC 4555

Structure (SMILES)	MurB IC50 [1]	MurB IC50 ([2]; (S) S. aureus enzyme) [µg/mL]	MurC IC50 ([3]; (E) E. coli enzyme) [µg/mL]	MIC E. faecalis GC 2242 (enterococci; E. faecalis GC 2242) [µg/mL]	MIC E. faecalis GC 4555 (enterococci; E. faecalis GC 4555) [µg/mL]	IC50 [1] [µM]	IC50 [2, 4] [µM]	IC50 [3, 5] [µM]	MIC (enterococci; [6]) [µg/mL]	MIC (enterococci; [7]) [µg/mL]	IC50 [2] [µM]	IC50 ([3]; MurC IC50, (E) E. coli enzyme) [µM]
O=C1OC(=Cc2cccc3ccccc23)C(O)=C1c1ccc(C=NO)cc1 (mixture of isomers) [Example 73]	> 25 µg/mL	12	19	>128	>128	–	–	–	–	–	–	–
COc1ccccc1-c1ccc(/C=C2\OC(=O)C(c3cc(Cl)cc(Cl)c3)=C2O)cc1OC [Example 19]	–	–	–	–	–	42.6	21.3	12.8	8 (≈ 17 µM)	8 (≈ 17 µM)	–	–
COc1ccccc1-c1ccc(/C=C2\OC(=O)C(c3ccc(Cl)c(Cl)c3)=C2O)cc1OC [Example 20]	–	–	–	–	–	6.39	6.39	23.4	16 (≈ 34.1 µM)	16 (≈ 34.1 µM)	–	–
Cc1cc(/C=C2\OC(=O)C(c3cc(Cl)cc(Cl)c3)=C2O)ccc1-c1ccccc1OS(C)(=O)=O [Example 39]	8 µg/mL	4	–	4 (≈ 7.73 µM)	8 (≈ 15.5 µM)	–	–	–	–	–	–	–
O=C1O/C(=C\c2ccc(Cl)cc2)C(O)=C1c1ccc2ccccc2c1 [Example 43]	–	–	–	–	–	17.2	14.3	11.5	4 (≈ 11.5 µM)	16 (≈ 45.9 µM)	–	–
O=C1O/C(=C\c2cccc3ccccc23)C(O)=C1c1cccc2ccccc12 [Example 47]	–	–	–	–	–	63.1	27.4	30.2	32 (≈ 87.8 µM)	64 (≈ 176 µM)	–	–
O=C1O/C(=C\c2cccc3ccccc23)C(O)=C1c1cc(Cl)cc(Cl)c1 [Example 70]	–	–	–	–	–	18.3	13	13	2 (≈ 5.22 µM)	2 (≈ 5.22 µM)	–	–
O=C1O/C(=C\c2cccc3ccccc23)C(O)=C1c1ccc(C(F)(F)F)cc1 [Example 71]	–	–	–	–	–	26.2	26.2	28.8	4 (≈ 10.5 µM)	8 (≈ 20.9 µM)	–	–
COc1cccc(C2=C(O)/C(=C/c3cccc4ccccc34)OC2=O)c1 [Example 72]	–	–	–	–	–	61	58.1	> 72.6	> 128	> 128	–	–
COC(=O)c1ccc(C2=C(O)/C(=C/c3cccc4ccccc34)OC2=O)cc1 [Example 74]	–	–	–	–	–	59.1	26.9	51	> 128	> 128	–	–
CCOC(=O)c1cccc(C2=C(O)C(=Cc3cccc4ccccc34)OC2=O)c1 [Example 75]	> 25 µg/mL	24	18	>128	64 (≈ 166 µM)	–	–	–	–	–	–	–
O=Cc1cccc(C2=C(O)/C(=C/c3cccc4ccccc34)OC2=O)c1 [Example 76]	–	–	–	–	–	20.4	14.6	14.6	> 128	> 128	–	–
O=C1O/C(=C\c2cccc3ccccc23)C(O)=C1c1cccc(C=NO)c1 [Example 77]	21 µg/mL	10	9	>128	>128	–	–	–	–	–	–	–
CN(C)c1ccc(/C=C2\OC(=O)C(c3ccc(Cl)cc3)=C2O)c2ccccc12 [Example 78]	–	–	–	–	–	7.66	33.2	–	64 (≈ 163 µM)	64 (≈ 163 µM)	–	–
CN(C)c1ccc(/C=C2\OC(=O)C(c3cc(Cl)cc(Cl)c3)=C2O)c2ccccc12 [Example 79]	–	–	–	–	–	14.1	2.35	–	4 (≈ 9.38 µM)	8 (≈ 18.8 µM)	–	–
CN(C)c1ccc(C=C2OC(=O)C(c3cc(Cl)cc(Cl)c3)=C2O)c2ccccc12 [Example 80]	3 µg/mL	1	–	4 (≈ 9.38 µM)	8 (≈ 18.8 µM)	–	–	–	–	–	–	–
CN(C)c1ccc(/C=C2\OC(=O)C(c3ccc(C(F)(F)F)cc3)=C2O)c2ccccc12 [Example 81]	–	–	–	–	–	54.1	35.3	–	16 (≈ 37.6 µM)	32 (≈ 75.2 µM)	–	–
O=C1O/C(=C\c2cccc(-c3cccc(Cl)c3)c2)C(O)=C1c1cccc(Cl)c1 [Example 134]	4 µg/mL	–	5	–	–	–	4.89	–	4 (≈ 9.77 µM)	8 (≈ 19.5 µM)	–	–
O=C1O/C(=C\c2cccc(-c3cc(Cl)cc(Cl)c3)c2)C(O)=C1c1cc(Cl)cc(Cl)c1 [Example 136]	3 µg/mL	–	11	–	–	–	4.18	–	0.5 (≈ 1.05 µM)	1 (≈ 2.09 µM)	–	–
O=C1O/C(=C\c2ccccc2-c2ccc(Cl)cc2)C(O)=C1c1ccc(Cl)cc1 [Example 137]	–	–	–	–	–	51.3	7.33	41.5	4 (≈ 9.77 µM)	4 (≈ 9.77 µM)	–	–
O=C1O/C(=C\c2ccc(Cl)cc2)C(O)=C1c1ccc(-c2ccccc2)c(F)c1 [Example 138]	–	–	–	–	–	56	7.64	12.7	4 (≈ 10.2 µM)	8 (≈ 20.4 µM)	–	–
O=C1O/C(=C\c2ccccc2-c2cccc(Cl)c2)C(O)=C1c1cccc(Cl)c1 [Example 140]	–	–	–	–	–	9.77	7.33	–	4 (≈ 9.77 µM)	4 (≈ 9.77 µM)	–	–
O=C1O/C(=C\c2ccccc2-c2ccc(Cl)c(Cl)c2)C(O)=C1c1ccc(Cl)c(Cl)c1 [Example 141]	2 (E); 2 (S) μg/mL	–	–	–	–	–	4.18	–	0.5 (≈ 1.05 µM)	1 (≈ 2.09 µM)	–	–
O=C1O/C(=C\c2cc(C(F)(F)F)ccc2Cl)C(O)=C1c1ccc(N2CCOCC2)c(F)c1 [Example 142]	10 µg/mL	21	–	>128	>128	–	–	–	–	–	–	–
O=C1O/C(=C\c2ccc(-c3ccccc3)cc2)C(O)=C1c1csc2ccccc12 [Example 143]	–	–	–	–	–	17.7	10.1	–	4 (≈ 10.1 µM)	32 (≈ 80.7 µM)	–	–
O=C1O/C(=C\c2ccc(-c3ccccc3)cc2)C(O)=C1c1cccs1 [Example 144]	–	–	–	–	–	57.7	28.9	–	32 (≈ 92.4 µM)	> 128	–	–
O=C1O/C(=C\c2cccc3ccccc23)C(O)=C1c1ccc(-c2ccccc2)cc1 [R=H, R1=4-biphenyl, R2=1-naphthyl]	–	–	–	–	–	12.8	–	–	4 (≈ 10.2 µM)	16 (≈ 41 µM)	25.6	15.4
